{"source": "paper PMC4865845", "about": "“A human genome-wide loss-of-function screen identifies effective chikungunya antiviral drugs” (Nature Communications, 2016)"}
{"tested_on": "CHIKV", "format": "cell-based, chikungunya virus"}
{"substance": "Hs_EZH2_7 (AACCATGTTTACAACTATCAA; chemistry not given here)", "Score_si4": 0.98}
{"substance": "Hs_ASH2L_1 (CCGAGTAACTAACTTATTTAA; chemistry not given here)", "Score_si2": 1.07}
{"substance": "s18269 (CCATTGCGGAGATCAAGAA; chemistry not given here)", "Score_si4": 0.18}
{"substance": "s12245 (sense CCATCAGGACCACTATTAA; chemistry not given here)", "Score_si4": 0.57}
{"substance": "Hs_FLJ31164_3 (sense GAAGCTGTTGATAGTATTGAA; chemistry not given here)", "Score_si1": 1.5}
{"substance": "Hs_CAB39L_2 (GCCAATGTCTTTGGACTGTAA; chemistry not given here)", "Score_si1": 2.37}
{"substance": "s13805 (sense TCACTGTGCTGATCGGGAA; chemistry not given here)", "Score_si3": 0.78}
{"substance": "Hs_NPEPL1_1 (CTGATTTATAGGGCAAGAGAA; chemistry not given here)", "Score_si4": 1.11}
{"substance": "s19091 (sense CAACAACCTTACACGAGTA; chemistry not given here) [reference compound]", "Score_si2": -0.78}
{"substance": "Hs_CUL4A_1 (sense ACCCATATTATTAGTGATAAA; chemistry not given here) [reference compound]", "Score_si1": -2.33}
{"substance": "s38243 (AGAAATTCCGGAACCAATT; chemistry not given here)", "Score_si2": 0.8}
{"substance": "Hs_CRSP8_2 (sense TCGAACAATAGTAAAGGGATA; chemistry not given here) [reference compound]", "Score_si2": -1.08}
{"substance": "s18906 (sense GAAGGAATTTCATTTGACA; chemistry not given here)", "Score_si3": 1.68}
{"substance": "Hs_DKFZP434B168_1 (CTGAAATTACTTGCTAATAAA; chemistry not given here)", "Score_si3": 1.61}
{"substance": "Hs_FLT4_4 (sense CGCGCTGATGTCGGAGCTCAA; chemistry not given here)", "Score_si1": 1.18}
{"substance": "Hs_SREBF2_1 (sense ACCCATAATATCATTGAGAAA; chemistry not given here)", "Score_si4": 1.37}
{"substance": "Hs_GPS1_6 (sense CAGCCTGGATCTGGAACAGTA; chemistry not given here)", "Score_si2": 1.76}
{"substance": "s12452 (sense GGACCAAGATGATCAGAAA; chemistry not given here)", "Score_si4": 0.08}
{"substance": "Hs_EXOSC1_2 (AAGCAGAGAAAGACATCTAAA; chemistry not given here) [reference compound]", "Score_si1": -2.21}
{"substance": "Hs_C15orf15_1 (CAGCATTTGTATAGTAACTAA; chemistry not given here)", "Score_si1": 1.89}
{"substance": "Hs_CRSP7_2 (sense GAGAAATACCCTATTACCAAA; chemistry not given here) [reference compound]", "Score_si1": -1.9}
{"substance": "Hs_PITRM1_2 (CCGGTGAATTACGTGGGTGAA; chemistry not given here) [reference compound]", "Score_si4": -0.68}
{"substance": "Hs_THRAP6_6 (sense CTGAGATTGGTATATGACAAA; chemistry not given here) [reference compound]", "Score_si1": -1.48}
{"substance": "Hs_DKFZp547E052_2 (CAGGAGATAGGACATCATTTA; chemistry not given here)", "Score_si1": 2.29}
{"substance": "s12353 (sense GGCATGTCGGTTACAAGAA; chemistry not given here)", "Score_si1": 1.86}
{"substance": "s619 (sense CTGCAGTTGTGGTTGGATA; chemistry not given here)", "Score_si1": 1.92}
{"substance": "s38778 (CCCTTCCTCTATTCGAACA; chemistry not given here)", "Score_si4": -0.27}
{"substance": "Hs_ANKRD9_2 (CTCCCAGGAGCTAACGTATAA; chemistry not given here)", "Score_si2": 2.08}
{"substance": "Hs_GSTP1_3 (sense TCCTTTCTCCAGGACCAATAA; chemistry not given here)", "Score_si4": -0.14}
{"substance": "Hs_FXC1_2 (sense CAAGTATTTGTTGGTTCATAA; chemistry not given here)", "Score_si1": 2.83}
{"substance": "Hs_PDLIM5_3 (AAGAGACGGTTTGGCATTTAT; chemistry not given here)", "Score_si1": 1.17}
{"substance": "Hs_UMPS_1 (CACCGCATTGATACTATAATA; chemistry not given here)", "Score_si4": 1.35}
{"substance": "Hs_PD2_1 (ACCGAGGAAGAAATATACAAA; chemistry not given here)", "Score_si4": 1.16}
{"substance": "Hs_AQP3_2 (CTGGATGTACATACATAAGTA; chemistry not given here)", "Score_si3": 1.09}
{"substance": "Hs_DLD_4 (TCGCTTGAATTTAGACAAGAT; chemistry not given here)", "Score_si2": 1.23}
{"substance": "s28640 (CACTCACACCATCCTATGA; chemistry not given here)", "Score_si1": 1.62}
{"substance": "s3114 (GAAGAGCAGTCACAGATCA; chemistry not given here)", "Score_si2": 2.05}
{"substance": "Hs_CNOT3_1 (sense CTCGGACACTGTGGAATTCTA; chemistry not given here)", "Score_si1": 2.54}
{"substance": "s195094 (sense CCTCTTCCACCGCTACTTC; chemistry not given here) [reference compound]", "Score_si2": -0.76}
{"substance": "Hs_ITGB4BP_1 (sense CTGGATCTATCATTACTGCAA; chemistry not given here)", "Score_si3": 1.14}
{"substance": "s6671 (sense CAACGAAAATCTAAATGCA; chemistry not given here)", "Score_si2": 0.2}
{"substance": "Hs_GBF1_1 (sense AAGAATATTTACATCATTCAA; chemistry not given here)", "Score_si4": 1.75}
{"substance": "s3162 (CATTTCGACTGGATCATAT; chemistry not given here)", "Score_si1": 1.86}
{"substance": "Hs_GRB10_2 (sense CTACCGTATAGTAACACTGTA; chemistry not given here)", "Score_si1": 0.95}
{"substance": "Hs_P4HB_6 (AAGATGAACTGTAATACGCAA; chemistry not given here)", "Score_si1": 1.38}
{"substance": "Hs_DC-UbP_1 (AAGGCAGTTAAGAAATAGATA; chemistry not given here)", "Score_si2": 1.13}
{"substance": "Hs_FLJ00193_2 (GAGCAGCTACATGGAGATGAA; chemistry not given here)", "Score_si1": 2.41}
{"substance": "Hs_AOF2_3 (ACGAGTTGCCACATTTCGCAA; chemistry not given here)", "Score_si3": 1.26}
{"substance": "s38242 (CGGTCTCATGTACCAGAAA; chemistry not given here)", "Score_si3": 0.52}
{"substance": "s12470 (sense GGATGTGGACAACAAAGTA; chemistry not given here)", "Score_si4": 1.56}
{"substance": "s3112 (GGATGAGATTCTAGACTTT; chemistry not given here)", "Score_si3": 1.86}
{"substance": "s15564 (sense GCTTGAAGCTGAAAAGCGA; chemistry not given here) [reference compound]", "Score_si4": 1.62}
{"substance": "n268452 (AGCTGGCCATCGAAAGGTA; chemistry not given here)", "Score_si1": 0.81}
{"substance": "Hs_ENTPD2_1 (CACGTCCATGTTTATCTACAA; chemistry not given here)", "Score_si2": 1.25}
{"substance": "Hs_CLPP_3 (sense GCCCATCCACATGTACATCAA; chemistry not given here)", "Score_si3": 1.41}
{"substance": "Hs_ODZ3_1 (CCGGGCTGTGTCAAAGAATAA; chemistry not given here)", "Score_si1": 1.47}
{"substance": "Hs_PTPN4_3 (sense AGCACGTACCTTAGAACTCTA; chemistry not given here)", "Score_si3": 1.47}
{"substance": "s1522 (sense GGATCAAGCTGCCCATCTA; chemistry not given here)", "Score_si2": 1.17}
{"substance": "s27640 (sense TGAAAAACGTAGAAATGAA; chemistry not given here)", "Score_si2": 1.74}
{"substance": "Hs_ZA20D1_2 (CAGGATGACATCGTTCAAGAA; chemistry not given here)", "Score_si3": 1.15}
{"substance": "Hs_DMAP1_1 (GCGGATGTACGGGACATTCTA; chemistry not given here)", "Score_si1": 2.23}
{"substance": "s32491 (GCCTGTATATGAGAGCCTT; chemistry not given here)", "Score_si4": 0.05}
{"substance": "s6097 (sense TCAGGACCCTGTACACCCA; chemistry not given here)", "Score_si4": 0.9}
{"substance": "Hs_GLTSCR2_6 (sense CCGGAGCTTCCTACAATCCAT; chemistry not given here)", "Score_si3": 1.7}
{"substance": "Hs_LTBP3_1 (CCGGGACAGATCTCAGCAGAA; chemistry not given here)", "Score_si2": 1.9}
{"substance": "Hs_GPSN2_2 (sense GTGGATGGCCTATTACATCAA; chemistry not given here)", "Score_si1": 2.86}
{"substance": "Hs_EXOSC1_1 (TTCATTCTCTTGAGTAATAAA; chemistry not given here) [reference compound]", "Score_si4": 0.51}
{"substance": "Hs_UMPS_2 (CAGGAGAAACCTGTTTAATCA; chemistry not given here)", "Score_si1": 3.14}
{"substance": "s38816 (GAACATCTGGATCAAGAGA; chemistry not given here)", "Score_si3": 1.02}
{"substance": "Hs_LIP8_1 (sense CTGGACTTTGCTAAAGCAGAA; chemistry not given here)", "Score_si4": 0.62}
{"substance": "Hs_SULF1_1 (sense TCCGTCGAATTTGAAGGTGAA; chemistry not given here) [reference compound]", "Score_si1": -2.1}
{"substance": "s17901 (GGAAATCGGCCTACAAGAT; chemistry not given here)", "Score_si3": 1.51}
{"substance": "Hs_SAFB_1 (sense ACGGACTGTAGTAATGGATAA; chemistry not given here)", "Score_si3": 0.86}
{"substance": "Hs_LTBP3_2 (CCGCTACTGCGTGGATGTGAA; chemistry not given here)", "Score_si4": 1.32}
{"substance": "s3163 (CTATCTTGGGTTTACCGTA; chemistry not given here)", "Score_si2": 1.54}
{"substance": "s12109 (sense CAGCCCTTGTTCTCATCAA; chemistry not given here)", "Score_si3": 1.16}
{"substance": "s32095 (CAGAAACGATCTACAAGAA; chemistry not given here)", "Score_si4": 1.53}
{"substance": "Hs_SARS_2 (sense CTGATGAAACCATGTAATAAA; chemistry not given here)", "Score_si1": 2.9}
{"substance": "s50641 (sense ACAACTCTGTGCACAACAA; chemistry not given here)", "Score_si4": 0.17}
{"substance": "Hs_U2AF2_3 (TAAGACGAATTTGCTCATTAA; chemistry not given here)", "Score_si1": 2.74}
{"substance": "s32489 (GGAACAAGCTGTGATCCCA; chemistry not given here)", "Score_si1": 1.66}
{"substance": "s15687 (sense CCCGTATCATGATCCACCA; chemistry not given here)", "Score_si1": 1.56}
